# Measured values published in patent publication US7674938B2, “Amino alcohol derivatives, pharmaceutical compositions containing the same, and use thereof” (Kissei Pharmaceutical Co., Ltd., priority 2003, dated 2010).
# Where two headings read alike, the source gives them in different places.
# What was measured:
# [1] = Transport study using human intestinal epithelium tissue (Caco-2); type: in vitro ADME; conditions: inside (pH 6.0) to outside (pH 7.4), 37° C., read-out: permeability coefficient Caco-2 Papp
# Protocol: 1) Preparation of Culture Medium.
# Dulbecco's modified Eagle's medium (Invitrogen Life Technologies) containing 1% fetal bovine serum (Sanko Jyunyaku), 1% MEM-nonessential amino acids, […] L-glutamine (Invitrogen Life Technologies), 1% penicillin—streptomycin 10000 units/mL-10000 μg/mL (Invitrogen Life Technologies) was prepared and used as a culture medium.
# Caco-2 cells (American Type Culture Collection) were subcultured in a culture flask containing the culture medium.
# After removing the culture medium before the cell reaches confluent, Caco-2 cells were washed with Hank's balanced salt solution Ca, Mg Free (Invitrogen Life Technologies).
# The culture medium in the inside and outside compartments of the Traswell chamber was removed and replaced by a buffer solution containing 10 mM MES (pH 6.0) or 10 mM HEPES (pH7.4). The medium volume in the inside and outside compartments of the chamber was made at 0.1 mL (pH 6.0) and 0.5 mL (pH 7.4), respectively. The medium of the inside compartment was replaced by a buffer solution (pH 6.0) containing test compounds. For evaluating the transport of the test compounds from the inside compartment to the outside compartment, 100 μL of the outside buffer was sampled after incubating at 37° C. for 1 hr.
# The apparent permeability coefficient was calculated as the following equation. The amounts of the test compounds in the outside buffer sampled were divided by incubation time. In addition, the amounts of penetration per incubation time (second) were divided by the concentration of the added test compound and the membrane surface.
# [formula] • Papp is apparent permeability coefficient. (×10^−6 cm/sec) • dQ/dt is amount of penetration per incubation time. • Co is the initial concentration. (100 μM) • A is the membrane surface area. (0.33 cm^2) • The concentrations of test compounds were determined using LC/MS/MS.
# [2] = biological target: T1, β2-adrenoceptor (Rattus norvegicus, UniProt P10608); assay: β2-adrenoceptor stimulation in isolated tissue: inhibition of spontaneous contraction of pregnant rat uterus (Magnus method); set-up: species or system SD rat; conditions: read-out: β2 receptor EC50
# T1 construct: The uterus of pregnant SD rat (Day 21 of gestation) was isolated and longitudinal muscle strip; from tissue; host or cells: pregnant SD rat uterus, longitudinal muscle strip
# T1 sequence (P10608 whole entry): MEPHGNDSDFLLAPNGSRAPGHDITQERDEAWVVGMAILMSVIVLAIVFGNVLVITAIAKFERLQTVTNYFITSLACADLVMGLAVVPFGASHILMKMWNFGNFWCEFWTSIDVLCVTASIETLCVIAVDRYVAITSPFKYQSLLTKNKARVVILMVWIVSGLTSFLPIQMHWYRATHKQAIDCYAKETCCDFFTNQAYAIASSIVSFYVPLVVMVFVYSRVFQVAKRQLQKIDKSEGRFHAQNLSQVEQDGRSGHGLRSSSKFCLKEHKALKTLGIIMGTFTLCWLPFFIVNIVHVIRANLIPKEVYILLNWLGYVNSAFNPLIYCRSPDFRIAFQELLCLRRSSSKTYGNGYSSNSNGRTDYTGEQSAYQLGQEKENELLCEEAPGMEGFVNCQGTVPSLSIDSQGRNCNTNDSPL
# Protocol: 3) Measurement of β2-adrenoceptor Stimulation
# The uterus of pregnant SD rat (Day 21 of gestation) was isolated and longitudinal muscle strip, which was avoided placenta attached part, about 15 mm in length and 5 mm in width was taken and the experiment was conducted according to a Magnus method. The preparation was suspended in a Locke-Ringer solution maintained at 37° C. and gassed with a mixed gas of 95% O2 and 5% CO2 and stretched at a tension of 0.5 g. Spontaneous contraction of uterus was outputted through an isometric force transducer and recorded on an oscillograph through a tachometer. The test compound was added cumulatively into a Magnus bath by every 5 minutes. Potencies were evaluated that the sum of uterine contraction for 5 minutes before the addition of test compounds was taken as a 100%, and compared with the sum of uterine contraction for 5 minutes after the addition of each concentration of test compounds. […] (R)-3′-[[2-[[2-(3-chlorophenyl)-2-hydroxyethyl]-aminoethoxy]-[1,1′-biphenyl]-3-carboxylic acid which was described in example 17 on WO99/65877 was also examined as a comparison example.
# [3] = biological target: T2, human β2-adrenoceptor (Homo sapiens, UniProt P07550); assay: Agonistic activities on human β2-adrenoceptor (cAMP in transfected CHO cells); type: cell-based; conditions: intrinsic activity: maximum reaction relative to isoproterenol maximum (100%)
# T2 construct: expressed in transfected cells; host or cells: CHO cells
# T2 sequence (P07550 whole entry): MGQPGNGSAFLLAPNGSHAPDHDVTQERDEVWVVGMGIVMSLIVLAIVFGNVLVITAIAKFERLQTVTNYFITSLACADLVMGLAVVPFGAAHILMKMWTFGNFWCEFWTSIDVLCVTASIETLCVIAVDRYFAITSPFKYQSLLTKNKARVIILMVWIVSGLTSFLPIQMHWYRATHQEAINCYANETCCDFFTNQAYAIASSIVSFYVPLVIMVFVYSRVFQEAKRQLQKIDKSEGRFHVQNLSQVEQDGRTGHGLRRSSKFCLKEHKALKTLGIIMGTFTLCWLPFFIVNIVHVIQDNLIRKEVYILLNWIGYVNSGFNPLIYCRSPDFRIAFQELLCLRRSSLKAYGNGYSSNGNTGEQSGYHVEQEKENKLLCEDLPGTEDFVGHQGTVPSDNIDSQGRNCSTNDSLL
# Description: (§1) 2. Measurement of Agonistic Activities on Human β1- and β2-adrenoceptors
# (2) Human β2-adrenoceptor
# The primer which added a restriction enzyme recognition region to 5′ end was designed on the basis of the base information that is registered with GenBank/EMBL data base as Accession No. M15169, and the clone was obtained by performance of PCR using human bladder origin cDNA as a template. The clone was inserted in top GEM-T vector and was amplified in Escherichia coli bacteria as a plasmid, and it was purified and the sequence of full length and around of insertion sequence determined by means of 310 Genetic Analyzer (ABI).
# (2) Preparation of Human β2-adrenoceptor Expressed Cells
# The plasmid (80 ng) for expression obtained in the previous section was transfected into […] suspended in DMEM containing 10% fetal bovine serum by means of Lipofectoamine2000. These cells were dispensed in 96 well plate by 5×10^4 cells/100 μL per well and were cultured under an atmosphere of 5% CO2 at 37° C. for 24 hours, and were used for the assay.
# (§2) 3) Measurement of Agonistic Activities on Human β1- and β2-adrenoceptors
# (§3) Test compounds were dissolved in 50% dimethyl sulfoxide to make a 10^−2 M solution. Then, a series of 1:10 dilutions containing a maximal dose of […] were prepared using D-PBS (−). The series were used for a testing sample to measure activity. The culture medium of CHO cells of previous section was removed and washed twice with 200 μL D-PBS (−) per well. After that, 50 μL of 3-isobutyl-1-methylxanthine (SIGMA, 1 mM) was added and leaved at rest for 5 minutes, and 50 μL of testing sample were added in them and they were incubated under an atomosphere of 5% CO2 at 37° C. for 30 minutes. cAMP concentrations accumulated in cells were reacted in cAMP-Screen and were detected by Microplate LuminometerTR717.
# [4] = biological target: T3, human β1-adrenoceptor (Homo sapiens, UniProt P08588); assay: Agonistic activities on human β1-adrenoceptor (cAMP in transfected CHO cells); type: cell-based; conditions: for β1 receptor I.A.: intrinsic activity: maximum reaction relative to isoproterenol maximum (100%)
# T3 construct: Both ends of a domain including full length of human β1-adrenoceptor were amplified; expressed in transfected cells; host or cells: CHO cells
# T3 sequence (P08588 whole entry): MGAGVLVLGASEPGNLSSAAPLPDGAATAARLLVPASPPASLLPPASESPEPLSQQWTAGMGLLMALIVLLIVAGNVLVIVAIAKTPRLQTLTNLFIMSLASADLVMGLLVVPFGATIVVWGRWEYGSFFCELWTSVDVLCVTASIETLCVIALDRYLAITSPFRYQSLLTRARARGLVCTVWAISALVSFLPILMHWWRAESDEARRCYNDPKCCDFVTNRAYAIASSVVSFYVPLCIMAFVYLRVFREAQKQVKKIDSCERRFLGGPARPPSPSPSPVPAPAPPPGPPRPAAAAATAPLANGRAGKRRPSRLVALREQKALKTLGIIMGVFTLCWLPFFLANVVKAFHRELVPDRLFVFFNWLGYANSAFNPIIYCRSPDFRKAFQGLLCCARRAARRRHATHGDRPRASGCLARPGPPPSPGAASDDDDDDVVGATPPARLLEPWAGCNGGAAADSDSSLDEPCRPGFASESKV
# Description: as §1
# (1) Human β1-adrenoceptor
# Both ends of a domain including full length of human β1-adrenoceptor were amplified on the basis of DNA base information that is registered with GenBank/EMBL data base as Accession No. J03019. DNA fragment which was amplified was inserted into a vector for cloning and amplified in Escherichia coli bacteria. The plasmid which was cloned was inserted into a vector pCI-neo (Promega) for protein expression and plasmid DNA was extracted and purified, then it was used for a preparation of the following expression cells.
# (1) Preparation of Human β1-adrenoceptor Expressed Cells
# The plasmid (320 ng) for expression which was obtained in the previous section was transfected into 5×10^4 CHO cells suspended in DMEM (Gibco-BRL: LIFE TECHNOLOGIES) containing 10% fetal bovine serum (Sanko Junyaku) by means of Lipofectoamine2000 (Invitrogen). These cells were dispensed in 96 well plate by 5×10^4 cells/100 μL per well and were cultured under an atmosphere of 5% CO2 at 37° C. for 24 hours, and were used for the assay.
# as §2, §3
# [5] = biological target: T4, β1-adrenoceptor (Rattus norvegicus, UniProt P18090); assay: β1-adrenoceptor stimulation in isolated tissue: heart rate increment of rat atrium (Magnus method); set-up: species or system SD rat; conditions: read-out: β1 receptor EC50
# T4 construct: The atrium of male SD rat (body weight 250-400 g) was isolated; from tissue; host or cells: SD rat atrium
# T4 sequence (P18090 whole entry): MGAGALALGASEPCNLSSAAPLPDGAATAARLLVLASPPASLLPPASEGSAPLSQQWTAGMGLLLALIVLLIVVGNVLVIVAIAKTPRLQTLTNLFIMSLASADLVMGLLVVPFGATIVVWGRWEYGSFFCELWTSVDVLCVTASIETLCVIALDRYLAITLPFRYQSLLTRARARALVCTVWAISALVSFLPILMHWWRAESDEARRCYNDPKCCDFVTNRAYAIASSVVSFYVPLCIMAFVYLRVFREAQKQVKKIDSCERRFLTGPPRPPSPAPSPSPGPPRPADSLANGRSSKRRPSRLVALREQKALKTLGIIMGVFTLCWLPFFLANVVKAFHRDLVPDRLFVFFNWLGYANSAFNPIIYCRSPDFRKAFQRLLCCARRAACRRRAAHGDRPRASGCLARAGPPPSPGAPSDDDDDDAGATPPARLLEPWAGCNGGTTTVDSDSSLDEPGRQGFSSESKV
# Protocol: 2) Measurement of β1-adrenoceptor Stimulation
# The atrium of male SD rat (body weight 250-400 g) was isolated and the experiment was conducted according to a Magnus method. The preparation was suspended in a Krebs-Henseleit solution maintained at 37° C. and gassed with a mixed gas of 95% O2 and 5% CO2 and stretched at a tension of 0.5 g. The myocardial contractility was outputted through an isometric force transducer and recorded on an oscillograph through a tachometer. The test compound was added cumulatively into a Magunus bath.
# [6] = biological target: T5, human β3-adrenoceptor (Homo sapiens, UniProt P13945); assay: Agonistic activities on human β3-adrenoceptor (cAMP accumulation in SK-N-MC cells); type: cell-based; conditions: for β3 receptor I.A.: intrinsic activity: maximum reaction relative to isoproterenol maximum (100%); for EC50: read-out: β3 receptor EC50
# T5 construct: SK-N-MC cells (American Type Culture Collection, 1×10^5 cell/mL) were put in 96 well plates; host or cells: SK-N-MC cells
# T5 sequence (P13945 whole entry): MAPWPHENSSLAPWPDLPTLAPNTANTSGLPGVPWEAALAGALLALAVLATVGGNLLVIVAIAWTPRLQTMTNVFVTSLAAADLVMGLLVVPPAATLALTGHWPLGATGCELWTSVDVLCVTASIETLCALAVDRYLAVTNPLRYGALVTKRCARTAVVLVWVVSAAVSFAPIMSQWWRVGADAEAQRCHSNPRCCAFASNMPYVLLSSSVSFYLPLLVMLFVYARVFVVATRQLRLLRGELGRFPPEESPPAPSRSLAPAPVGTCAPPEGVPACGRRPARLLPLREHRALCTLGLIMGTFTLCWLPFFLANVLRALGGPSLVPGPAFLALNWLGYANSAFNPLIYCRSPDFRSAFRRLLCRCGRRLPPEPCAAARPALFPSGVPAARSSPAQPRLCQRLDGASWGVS
# Protocol: 1. Measurement of Agonistic Activities on Human β3-adrenoceptor
# Test compounds were dissolved in 50% dimethyl sulfoxide to make a 10^−2 M solution. Then, a series of 1:10 dilutions containing a maximal dose of 1×10^−4 M were prepared using D-PBS (−) (Gibco-BRL: LIFE TECHNOLOGIES). The series were used for a testing sample to measure activity. SK-N-MC cells (American Type Culture Collection, 1×10^5 cell/mL) were put in 96 well plates by 100 μL and were cultured for about 24 hours. […] After that, 20 μL of 3-isobutyl-1-methylxanthine (SIGMA, 1×10^−2 mol/L D-PBS (−) solution) and 20 μL of testing sample were added in them and they were incubated under an atmosphere of 5% CO2 at 37° C. for 30 minutes. cAMP concentrations accumulated in cells were reacted in cAMP-Screen (Applied Biosystems) and were detected by Microplate LuminometerTR717 (Applied Biosystems).
# [7] = system: ddY mice adipocytes; assay: Lipolysis in ddY mice adipocytes (free fatty acid release); type: cell-based; conditions: Mus musculus, Adipocyte, 2 h; read-out: Lipolysis acticity EC50 value
# Protocol: Epididymal fat tissue of ddY mice (body weight 35 g) was removed and isolated to cells by collagenase (typeI, 1 mg/ml) in a culture medium (Krebs-Henseleit solution inclusive of 3% BSA, 1.2 mM CaCl2 and 25 mM HEPES but exclusive of NaHCO3; pH7.4) maintained at 37° C. After rinsing the cells in the culture medium, 50,000 cells/well were seeded in a 96-well culture plate and were incubated at 37° C. in the presence of various concentration of test compounds. Two hours later, the concentration of free fatty acid in the culture medium was measured and it was made as an index for lipolysis. The concentration of free fatty acid was measured by means of NEFA C-test wako (WAKO).
# (R)-3′-[[2-[[2-(3-chlorophenyl)-2-hydroxyethyl]amino-ethoxy]-[1,1′-biphenyl]-3-carboxylic acid which was described in example 17 on WO99/65877 was also examined as a comparison example.
"Papp at 1 h, 100 μM [1] [×10⁻⁶ cm/s]",EC50 [2] [µM],β2 receptor I.A. [3] [%],β1 receptor I.A. [4] [%],EC50 ([4]; read-out: β1 receptor EC50) [nM],β3 receptor I.A. [6] [%],EC50 [6] [nM],"EC50 ([4]; CHO cells expressing human β1-adrenoceptor, cAMP, 50% of isoproterenol maximum, read-out: β1 receptor EC50) [nM]",EC50 [7] [nM],"Emax ([4]; CHO, read-out: β1 receptor EC50) [%]",SMILES,EC50 [5] [µM]
–,–,–,–,–,100,–,–,–,–,"CC(C)NCC(O)c1ccc(O)c(O)c1 (centres unmarked) [Isoproterenol, reference compound]",–
3.4,5.87,27,87,18900,239,25,–,19.5,–,CC(C)c1cc(C(=O)O)ccc1-c1ccc(OCCN[C@@H](C)[C@H](O)c2ccc(O)cc2)cc1 [Compound 156],> 10
4,–,32,62,790,91,200,–,–,–,CCCc1cc(C(=O)O)ccc1-c1ccc(OCCN[C@@H](C)[C@H](O)c2ccc(O)cc2)cc1 [Compound 160],–

# The remaining lines, values behind:
SMILES,"Papp at 1 h, 100 μM [1] [×10⁻⁶ cm/s]",EC50 [2] [µM],β2 receptor I.A. [3] [%],β1 receptor I.A. [4] [%],EC50 ([4]; read-out: β1 receptor EC50) [nM],β3 receptor I.A. [6] [%],EC50 [6] [nM],"EC50 ([4]; CHO cells expressing human β1-adrenoceptor, cAMP, 50% of isoproterenol maximum, read-out: β1 receptor EC50) [nM]",EC50 [7] [nM],"Emax ([4]; CHO, read-out: β1 receptor EC50) [%]",EC50 [5] [µM]
"Cc1cc(C(=O)O)ccc1-c1cc(C)c(OCCN[C@@H](C)[C@H](O)c2ccc(O)cc2)c(C)c1 [Compound 3, 4′-{2-[(1S,2R)-2-Hydroxy-2-(4-hydroxyphenyl)-1-methylethyl-amino]ethoxy}-2,3′,5′-trimethylbiphenyl-4-carboxylic acid]",19.9,–,–,–,–,–,–,–,–,–,–
"CCc1cc(C(=O)O)ccc1-c1ccc(OCCN[C@@H](C)[C@H](O)c2ccc(O)cc2)cc1 [Compound 153, 2-Ethyl-4′-{(1S,2R)-2-[2-hydroxy-2-(4-hydroxyphenyl)-1-methylethylamino]ethoxy}biphenyl-4-carboxylic acid]",–,2.68,28,57,4320,97,480,–,–,–,> 10
"O=C(O)c1cccc(-c2cccc(OCCNC[C@H](O)c3cccc(Cl)c3)c2)c1 [Comparison, reference compound]",–,> 10,15,60,–,41,> 10000,740,> 1000,–,1.88
"Cc1cc(-c2ccc(C(=O)O)c(C(C)C)c2)cc(C)c1OCCN[C@@H](C)[C@H](O)c1ccc(O)cc1 [Compound 4, 4′-{2-[(1S,2R)-2-Hydroxy-2-(4-hydroxyphenyl)-1-methylethyl-amino]ethoxy}-3-isopropyl-3′,5′-dimethylbiphenyl-4-carboxylic acid]",15.7,–,27,45,–,94,240,–,–,< 50,–
CCCc1cc(C(=O)O)ccc1-c1cc(C)c(OCCN[C@@H](C)[C@H](O)c2ccc(O)cc2)c(C)c1 [Compound 26],–,–,49,74,2280,125,57,–,11.2,–,–
